Patent US8835464B2, “Triazole compounds that modulate HSP90 activity” (Synta Pharmaceuticals Corp., priority 2006, dated 2014)
Where a name gives a salt, the structure may show the parent alone.

These molecules were tested on Her2 (assay: Degradation of Her2 in BT-474 cells, Western blot (Method 1)). Conditions: 0.5 μM, overnight, positive control.
Type: cell-based, human
Procedure: Human high-Her2 breast carcinoma BT474 (HTB-20), SK-BR-3 (HTB-30) and MCF-7 breast carcinoma (HTB-22) from American Type Culture Collection, VA, USA were grown in Dulbecco's modified Eagle's medium with 4 mM L-glutamine and antibiotics ([…] penicillin and 100 ug/ml streptomycine; GibcoBRL). To obtain exponential cell growth, cells were trypsinized, counted and seeded at a cell density of 0.5×10^6 cells/ml regularly, every 3 days. All experiments were performed on day 1 after cell passage.
BT-474 cells are treated with 0.5 μM, 2 μM, or 5 μM of 17AAG (a positive control) or 0.5 μM, 2 μM, or 5 μM of a compound of the invention overnight in DMEM medium. After treatment, each cytoplasmic sample is prepared from 1×10^6 cells by incubation of cell lysis buffer (#9803, cell Signaling Technology) on ice for 10 minutes. The resulting supernatant used as the cytosol fractions is dissolved with sample buffer for SDS-PAGE and run on a SDS-PAGE gel, blotted onto a nitrocellulose membrane by using semi-dry transfer. Non-specific binding to nitrocellulose is blocked with 5% skim milk in TBS with 0.5% Tween at room temperature for 1 hour, then probed with anti-Her2/ErB2 mAb (rabbit IgG, #2242, Cell Signaling) and anti-Tubulin (T9026, Sigma) as housekeeping control protein. […]

In the case of `C=CCNC1=C2C[C@@H](C)C[C@H](OC)[C@H](O)[C@@H](C)/C=C(\C)[C@H](OC(N)=O)[C@@H](OC)/C=C\C=C(/C)C(=O)NC(=CC1=O)C2=O` [Compound 17AAG, 17-allylamino-17-demethoxygeldanamycin], the “degradation of Her2” value is reported as “partial degradation”.

The molecules below were run on Hsp90 (assay: IC50 of compounds of the invention, Example B Method 2 (Tables 6-9)). Conditions: Table 7; Her2 degradation / inhibition of Hsp90; Method 2: MV-4-11 cells, 72 hours, Cell Counting Kit-8; read-out: IC50.
Type: cell-based, human

In order of falling IC50:
1. CC(C)c1cc(-c2nnc(NC(=O)C3CCCC3)n2-c2ccc3c(ccn3C)c2)c(O)cc1O [Compound 20a, N-(5-(2,4-dihydroxy-5-isopropylphenyl)-4-(1-methyl-1H-indol-5-yl)-4H-1,2,4-triazol-3-yl)cyclopentanecarboxamide]  5920 nM
2. CC(C)c1cc(-c2nnc(NC(=O)C(F)(F)F)n2-c2ccc3c(ccn3C)c2)c(O)cc1O [Compound 18a, N-(5-(2,4-dihydroxy-5-isopropylphenyl)-4-(1-methyl-1H-indol-5-yl)-4H-1,2,4-triazol-3-yl)-2,2,2-trifluoroacetamide]  3000 nM
3. CC(C)c1cc(-c2nnc(NC(=O)COc3ccc(Cl)cc3)n2-c2ccc3c(ccn3C)c2)c(O)cc1O [Compound 19a, 2-(4-chlorophenoxy)-N-(5-(2,4-dihydroxy-5-isopropylphenyl)-4-(1-methyl-1H-indol-5-yl)-4H-1,2,4-triazol-3-yl)acetamide]  2740 nM
4. CC(C)c1cc(-c2nnc(NC(=O)c3ccc(F)c(F)c3)n2-c2ccc3c(ccn3C)c2)c(O)cc1O [Compound 17a, N-(5-(2,4-dihydroxy-5-isopropylphenyl)-4-(1-methyl-1H-indol-5-yl)-4H-1,2,4-triazol-3-yl)-3,4-difluorobenzamide]  1680 nM
5. CC(C)C(=O)Nc1nnc(-c2cc(C(C)C)c(O)cc2O)n1-c1ccc2c(ccn2C)c1 [Compound 14a, N-(5-(2,4-dihydroxy-5-isopropylphenyl)-4-(1-methyl-1H-indol-5-yl)-4H-1,2,4-triazol-3-yl)isobutyramide]  1560 nM
6. CC(C)c1cc(-c2nnc(NC(=O)Cc3ccccc3)n2-c2ccc3c(ccn3C)c2)c(O)cc1O [Compound 16a, N-(5-(2,4-dihydroxy-5-isopropylphenyl)-4-(1-methyl-1H-indol-5-yl)-4H-1,2,4-triazol-3-yl)-2-phenylacetamide]  1460 nM
7. CC(C)c1cc(-c2nnc(NC(=O)c3ccco3)n2-c2ccc3c(ccn3C)c2)c(O)cc1O [Compound 15a, N-(5-(2,4-dihydroxy-5-isopropylphenyl)-4-(1-methyl-1H-indol-5-yl)-4H-1,2,4-triazol-3-yl)furan-2-carboxamide]  1040 nM

Same assay, conditions: Table 8; Her2 degradation / inhibition of Hsp90; Method 2: MV-4-11 cells, 72 hours, Cell Counting Kit-8; read-out: IC50

Going from `CC(C)c1cc(-c2nn(COC(=O)C(N)Cc3ccccc3)c(=O)n2-c2ccc3c(ccn3C)c2)c(O)cc1O` (stereo not shown) [Compound 13b, (3-(2,4-dihydroxy-5-isopropylphenyl)-4-(1-methyl-1H-indol-5-yl)-5-oxo-4,5-dihydro-1H-1,2,4-triazol-1-yl)methyl 2-amino-3-phenylpropanoate] to `CC(C)c1cc(-c2nn(C(=O)C(N)Cc3ccccc3)c(=O)n2-c2ccc3c(ccn3C)c2)c(OC(=O)C(N)Cc2ccccc2)cc1OC(=O)C(N)Cc1ccccc1` (stereo not shown) [Compound 17b, 4-(1-(2-amino-3-phenylpropanoyl)-4-(1-methyl-1H-indol-5-yl)-5-oxo-4,5-dihydro-1H-1,2,4-triazol-3-yl)-6-isopropyl-1,3-phenylene bis(2-amino-3-phenylpropanoate) trihydrochloride], the IC50 rises from 27 nM to 46 nM (1.7-fold). The first is the more potent here.

`CC(C)c1cc(-c2nn(C(=O)CN)c(=O)n2-c2ccc3c(ccn3C)c2)c(OC(=O)CN)cc1OC(=O)CN` [Compound 15b, 4-(1-(2-aminoacetyl)-4-(1-methyl-1H-indol-5-yl)-5-oxo-4,5-dihydro-1H-1,2,4-triazol-3-yl)-6-isopropyl-1,3-phenylene bis(2-aminoacetate) trihydrochloride] and `CC(N)C(=O)Oc1cc(OC(=O)C(C)N)c(C(C)C)cc1-c1nn(C(=O)C(C)N)c(=O)n1-c1ccc2c(ccn2C)c1` (stereo not shown) [Compound 16b, 4-(1-(2-aminopropanoyl)-4-(1-methyl-1H-indol-5-yl)-5-oxo-4,5-dihydro-1H-1,2,4-triazol-3-yl)-6-isopropyl-1,3-phenylene bis(2-aminopropanoate) trihydrochloride] are within 1.5-fold of each other in IC50: 79 nM for the first, 56 nM for the second.

Work on `COCCC(=O)Oc1cc(O)c(-c2nnc(OC(=O)CCOC)n2-c2ccc3c(ccn3C)c2)cc1C(C)C` [Compound 18b, 5-hydroxy-2-isopropyl-4-(5-(3-methoxypropanoyloxy)-4-(1-methyl-1H-indol-5-yl)-4H-1,2,4-triazol-3-yl)phenyl 3-methoxypropanoate] yielded an IC50 of under 100 nM.

Same assay, conditions: Table 9; Her2 degradation / inhibition of Hsp90; Method 2: MV-4-11 cells, 72 hours, Cell Counting Kit-8; hydrochloride; read-out: IC50 Range

With `CC(C)c1cc(-c2nnc(O)n2-c2ccc(N(C)C)c(S(N)(=O)=O)c2)c(O)cc1O` [Compound 13d, 5-(3-(2,4-dihydroxy-5-isopropylphenyl)-5-hydroxy-4H-1,2,4-triazol-4-yl)-2-(dimethylamino)benzene sulfonamide hydrochloride] the IC50 was 207 nM.

Same assay, conditions: Table 9; Her2 degradation / inhibition of Hsp90; Method 2: MV-4-11 cells, 72 hours, Cell Counting Kit-8; read-out: IC50 Range

In order of falling IC50:
1. CC(C)c1cc(-c2nnc(S)n2-c2cccc(S(N)(=O)=O)c2)c(O)cc1O [Compound 14d, 3-(3-(2,4-dihydroxy-5-isopropylphenyl)-5-mercapto-4H-1,2,4-triazol-4-yl)benzenesulfonamide]  336 nM
2. CC(C)c1cc(-c2nnc(O)n2-c2cccc(S(=O)(=O)N3CCOCC3)c2)c(O)cc1O [Compound 15d, 4-(5-hydroxy-4-(3-(morpholinosulfonyl)phenyl)-4H-1,2,4-triazol-3-yl)-6-isopropylbenzene-1,3-diol]  330 nM
3. CC(C)c1cc(-c2nnc(O)n2-c2ccc(OCCN3CCOCC3)nc2)c(O)cc1O [Compound 20d, 4-(5-hydroxy-4-(6-(2-morpholinoethoxy)pyridin-3-yl)-4H-1,2,4-triazol-3-yl)-6-isopropylbenzene-1,3-diol]  114 nM
4. CC(C)c1cc(-c2nnc(O)n2-c2ccc(N(C)S(C)(=O)=O)cc2)c(O)cc1O [Compound 17d, N-(4-(3-(2,4-dihydroxy-5-isopropylphenyl)-5-hydroxy-4H-1,2,4-triazol-4-yl)phenyl)-N-methylmethanesulfonamide]  85 nM
5. CC(C)c1cc(-c2nnc(O)n2-c2ccc(N3CCOCC3)nc2)c(O)cc1O [Compound 19d, 4-(5-hydroxy-4-(6-morpholinopyridin-3-yl)-4H-1,2,4-triazol-3-yl)-6-isopropylbenzene-1,3-diol]  49 nM
